The source made the active and inactive calls.
Key:
[1] = Luminescence Cell-Based Dose Response to Identify Activators of 5'UTR Stem-Loop Driven Prion Protein mRNA Translation in H4-C Neuroglioblastoma Cells. [Related pubchem assays: 1829 (Project Summary), 1814 (Primary HTS)]; format: functional
[2] = Luminescence Cell-Based Dose Confirmation HTS to Identify Activators of 5'UTR Stem-Loop Driven Alpha-Synuclein mRNA Translation in H4 Neuroglioblastoma Cells. [Related pubchem assays: 1829 (Project Summary), 1814 (Primary HTS)]; format: functional
[3] = Luminescence Cell-Based Dose Response HTS to Identify Activators of Luciferase Translation or Activity in H4 […] Cells. [Related pubchem assays: 1829 (Project Summary), 1814 (Primary HTS)]; format: functional
H4 = experiment: Luminescence Cell-Based Dose Response HTS to Identify Activators of 5'UTR Stem-Loop Driven Prion Protein mRNA Translation in H4 Neuroglioblastoma Cells. [Related pubchem assays: 1829 (Project Summary), 1814 (Primary HTS)]; format: functional; conditions: Homo sapiens
[4] = Luminescence Cell-Based Dose Response to Identify Activators of Luciferase Translation or Activity in H4-C Neuroglioblastoma Cells. [Related pubchem assays: 1829 (Project Summary), 1814 (Primary HTS)]; format: functional
[5] = Luminescence Cell-Based Dose Confirmation to Identify Activators of 5'UTR Stem-Loop Driven Alpha-Synuclein mRNA Translation in H4 Neuroglioblastoma Cells. [Related pubchem assays: 1829 (Project Summary), 1814 (Primary HTS)]; format: functional
[6] = target: G-protein coupled receptor 55 (Homo sapiens, UniProt Q9Y2T6); experiment: GPR55 antagonists blocking LPI-driven arrestin recruitment, primary screen, imaging, U2OS, beta-arrestin-GFP, LPI agonist (AID 2013); format: functional;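 also: antagonist potency measured as reduced agonist-driven arrestin aggregation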
G-protein coupled receptor 55, sequence (Q9Y2T6 whole entry): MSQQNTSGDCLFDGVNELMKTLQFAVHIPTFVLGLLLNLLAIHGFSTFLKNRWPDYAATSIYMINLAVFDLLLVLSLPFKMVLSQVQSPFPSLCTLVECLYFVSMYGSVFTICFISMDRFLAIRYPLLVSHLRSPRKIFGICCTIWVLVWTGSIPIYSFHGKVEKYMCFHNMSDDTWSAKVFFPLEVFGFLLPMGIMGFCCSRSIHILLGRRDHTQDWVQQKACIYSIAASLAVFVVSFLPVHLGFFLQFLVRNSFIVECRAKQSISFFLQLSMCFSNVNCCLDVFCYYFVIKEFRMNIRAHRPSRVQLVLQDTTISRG

[7] = target: T1, Ubiquitin-conjugating enzyme E2 N (Homo sapiens, UniProt P61088); format: functional;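 also: Dose-response confirmation in a TR-FRET assay detecting UBC13-driven polyubiquitin chain formation, inhibition measured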
T1 sequence (P61088 whole entry): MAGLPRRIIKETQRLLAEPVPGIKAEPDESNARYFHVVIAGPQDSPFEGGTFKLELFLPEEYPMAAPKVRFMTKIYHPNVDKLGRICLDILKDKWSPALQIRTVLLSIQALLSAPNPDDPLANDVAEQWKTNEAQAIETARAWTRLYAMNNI

Melanocortin receptor 4 = Melanocortin receptor 4 (Homo sapiens, UniProt P32245); experiment: MC4R antagonist potency on cAMP, dose response, cell-based, TR-FRET, biased antagonists (AID 602298); format: functional;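 also: antagonist potency against agonist-stimulated cAMP production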
Melanocortin receptor 4, sequence (P32245 whole entry): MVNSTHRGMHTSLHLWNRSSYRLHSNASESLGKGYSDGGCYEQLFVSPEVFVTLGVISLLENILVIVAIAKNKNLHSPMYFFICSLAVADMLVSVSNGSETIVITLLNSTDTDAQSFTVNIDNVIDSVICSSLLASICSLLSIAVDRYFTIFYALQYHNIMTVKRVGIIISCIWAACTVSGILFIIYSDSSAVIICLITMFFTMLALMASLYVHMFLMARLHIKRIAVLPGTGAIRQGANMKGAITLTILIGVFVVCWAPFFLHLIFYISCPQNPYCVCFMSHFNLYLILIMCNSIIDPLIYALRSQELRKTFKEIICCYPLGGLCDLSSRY

[8] = nonselective inhibitors of cellular cAMP signaling, dose response, counter-screen for MC4R biased antagonist project, cell-based, TR-FRET cAMP detection (AID 602305); format: functional;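 also: U2OS cells stimulated with forskolin near its EC80 as the cAMP inducer; potency is for inhibition of forskolin-stimulated cAMP signaling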
Fatty acid synthase [9] = target: T2, Fatty acid synthase (Homo sapiens, UniProt P49327); experiment: FAS thioesterase domain inhibitors, dose response, biochemical, endpoint fluorescence intensity, uHTS hits (AID 624327); format: functional;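 also: fluorescence from hydrolysis of an O-methyl fluorescein acyl ester substrate by the enzyme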
T2 sequence (P49327 whole entry, the tested form may be a part): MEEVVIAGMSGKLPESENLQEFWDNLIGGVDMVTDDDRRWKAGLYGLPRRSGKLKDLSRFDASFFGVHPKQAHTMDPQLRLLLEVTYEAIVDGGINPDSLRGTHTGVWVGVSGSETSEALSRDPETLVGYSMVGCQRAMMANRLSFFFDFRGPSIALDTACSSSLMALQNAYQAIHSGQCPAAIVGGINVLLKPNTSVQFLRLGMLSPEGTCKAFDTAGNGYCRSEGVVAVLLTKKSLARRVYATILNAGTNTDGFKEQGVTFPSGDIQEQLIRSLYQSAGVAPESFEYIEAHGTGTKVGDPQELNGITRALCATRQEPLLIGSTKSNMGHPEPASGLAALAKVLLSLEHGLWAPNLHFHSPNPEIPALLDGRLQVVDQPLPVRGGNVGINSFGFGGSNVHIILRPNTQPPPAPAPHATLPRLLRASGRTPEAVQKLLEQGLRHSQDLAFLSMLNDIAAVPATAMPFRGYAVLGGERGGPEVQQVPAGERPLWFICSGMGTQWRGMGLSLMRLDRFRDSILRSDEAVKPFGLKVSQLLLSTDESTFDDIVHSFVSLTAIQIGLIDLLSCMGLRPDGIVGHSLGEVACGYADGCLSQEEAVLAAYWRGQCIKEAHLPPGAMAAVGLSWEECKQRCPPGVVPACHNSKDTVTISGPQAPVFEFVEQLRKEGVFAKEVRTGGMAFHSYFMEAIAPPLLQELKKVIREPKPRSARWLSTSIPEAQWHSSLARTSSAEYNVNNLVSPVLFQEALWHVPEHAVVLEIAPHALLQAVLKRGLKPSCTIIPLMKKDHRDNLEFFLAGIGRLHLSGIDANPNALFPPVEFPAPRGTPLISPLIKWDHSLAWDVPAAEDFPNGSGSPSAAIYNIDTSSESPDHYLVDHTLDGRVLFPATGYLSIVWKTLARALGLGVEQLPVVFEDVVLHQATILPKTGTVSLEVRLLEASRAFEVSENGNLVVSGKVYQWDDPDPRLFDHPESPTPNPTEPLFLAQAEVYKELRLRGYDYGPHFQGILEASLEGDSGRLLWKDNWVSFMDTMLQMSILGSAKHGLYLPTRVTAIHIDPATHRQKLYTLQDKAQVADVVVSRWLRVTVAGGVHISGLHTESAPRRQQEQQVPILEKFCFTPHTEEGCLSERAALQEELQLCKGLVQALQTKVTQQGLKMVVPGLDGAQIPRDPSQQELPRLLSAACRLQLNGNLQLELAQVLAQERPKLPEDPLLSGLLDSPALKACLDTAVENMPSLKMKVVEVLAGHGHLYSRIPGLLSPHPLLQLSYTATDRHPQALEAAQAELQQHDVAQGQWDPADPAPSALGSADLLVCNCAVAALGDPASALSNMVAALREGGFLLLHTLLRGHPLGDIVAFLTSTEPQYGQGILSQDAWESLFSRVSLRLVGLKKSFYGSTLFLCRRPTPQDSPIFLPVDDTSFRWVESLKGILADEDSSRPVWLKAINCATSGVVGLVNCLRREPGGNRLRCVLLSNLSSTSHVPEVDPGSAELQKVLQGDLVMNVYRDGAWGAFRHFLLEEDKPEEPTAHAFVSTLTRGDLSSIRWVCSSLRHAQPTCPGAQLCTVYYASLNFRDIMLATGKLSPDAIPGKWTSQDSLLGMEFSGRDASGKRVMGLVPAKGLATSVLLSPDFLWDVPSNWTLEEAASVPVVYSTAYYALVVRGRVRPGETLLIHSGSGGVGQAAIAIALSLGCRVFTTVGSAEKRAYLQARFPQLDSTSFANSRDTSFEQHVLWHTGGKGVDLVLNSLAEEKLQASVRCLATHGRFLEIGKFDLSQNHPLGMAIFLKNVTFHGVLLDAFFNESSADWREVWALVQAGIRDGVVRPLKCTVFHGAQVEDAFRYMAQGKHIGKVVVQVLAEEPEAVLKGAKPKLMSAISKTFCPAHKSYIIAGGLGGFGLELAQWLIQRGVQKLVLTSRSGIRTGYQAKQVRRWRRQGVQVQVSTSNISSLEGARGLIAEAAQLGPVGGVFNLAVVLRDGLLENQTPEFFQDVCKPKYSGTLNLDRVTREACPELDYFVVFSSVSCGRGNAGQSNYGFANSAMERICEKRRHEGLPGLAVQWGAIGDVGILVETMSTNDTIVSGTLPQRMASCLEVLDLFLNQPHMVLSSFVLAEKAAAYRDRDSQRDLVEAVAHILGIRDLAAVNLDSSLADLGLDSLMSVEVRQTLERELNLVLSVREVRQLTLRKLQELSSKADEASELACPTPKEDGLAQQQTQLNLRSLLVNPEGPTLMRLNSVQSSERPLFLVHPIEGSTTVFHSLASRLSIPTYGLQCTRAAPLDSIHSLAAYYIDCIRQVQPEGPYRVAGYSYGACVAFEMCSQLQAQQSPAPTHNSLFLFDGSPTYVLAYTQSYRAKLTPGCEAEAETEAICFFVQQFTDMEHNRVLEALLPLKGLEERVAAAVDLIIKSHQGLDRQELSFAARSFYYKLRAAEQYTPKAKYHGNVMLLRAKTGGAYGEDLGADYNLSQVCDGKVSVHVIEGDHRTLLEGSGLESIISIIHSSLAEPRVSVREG

Fatty acid synthase [10] = target: T2, Fatty acid synthase; experiment: FAS thioesterase domain inhibitors, dose response, biochemical, kinetic fluorescence intensity (AID 624326); format: functional;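 also: rate of fluorescence rise from hydrolysis of a fluorogenic O-methyl fluorescein ester substrate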
[11] = target: T3, RNA-binding protein pos-1 (Caenorhabditis elegans, UniProt G5EF15); experiment: inhibitors of POS-1/mex-3 RNA binding, dose response, biochemical, fluorescence polarization (AID 1964);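 also: purified POS-1 fused to maltose binding protein made in E. coli; potency of compounds blocking POS-1 binding to fluorescent RNA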
T3 sequence (G5EF15 whole entry): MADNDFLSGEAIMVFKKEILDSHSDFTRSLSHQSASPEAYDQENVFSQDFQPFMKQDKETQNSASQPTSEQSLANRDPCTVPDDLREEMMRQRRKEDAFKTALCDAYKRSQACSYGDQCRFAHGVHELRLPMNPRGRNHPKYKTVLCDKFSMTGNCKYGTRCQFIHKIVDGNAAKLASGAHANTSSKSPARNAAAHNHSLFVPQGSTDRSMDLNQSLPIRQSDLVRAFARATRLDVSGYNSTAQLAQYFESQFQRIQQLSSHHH

[12] = target: T4, Zinc finger protein mex-5 (Caenorhabditis elegans, UniProt Q9XUB2); experiment: MEX-5/TCR-2 RNA interaction inhibitors, dose response, biochemical, C. elegans, fluorescence polarization (AID 1960)
T4 sequence (Q9XUB2 whole entry): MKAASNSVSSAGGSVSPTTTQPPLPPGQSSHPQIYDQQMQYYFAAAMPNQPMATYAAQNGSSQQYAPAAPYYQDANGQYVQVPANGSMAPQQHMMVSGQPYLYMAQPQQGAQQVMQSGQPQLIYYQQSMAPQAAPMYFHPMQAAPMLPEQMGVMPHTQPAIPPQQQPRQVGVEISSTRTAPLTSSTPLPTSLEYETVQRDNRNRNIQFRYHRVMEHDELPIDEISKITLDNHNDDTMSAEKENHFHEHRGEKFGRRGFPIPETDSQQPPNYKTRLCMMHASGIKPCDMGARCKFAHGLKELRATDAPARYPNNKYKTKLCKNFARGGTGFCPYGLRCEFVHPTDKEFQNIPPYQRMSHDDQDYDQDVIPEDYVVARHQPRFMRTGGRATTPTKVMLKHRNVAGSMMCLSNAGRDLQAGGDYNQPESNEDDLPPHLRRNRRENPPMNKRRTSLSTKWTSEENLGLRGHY

[13] = microbe, parasite or virus in culture; format: functional; conditions: Mycobacterium tuberculosis
Nonstructural protein 1 = Nonstructural protein 1 (Influenza A virus, UniProt Q194T2); format: functional, Influenza A virus (A/California/07/2009(H1N1))
Nonstructural protein 1, sequence (Q194T2 whole entry): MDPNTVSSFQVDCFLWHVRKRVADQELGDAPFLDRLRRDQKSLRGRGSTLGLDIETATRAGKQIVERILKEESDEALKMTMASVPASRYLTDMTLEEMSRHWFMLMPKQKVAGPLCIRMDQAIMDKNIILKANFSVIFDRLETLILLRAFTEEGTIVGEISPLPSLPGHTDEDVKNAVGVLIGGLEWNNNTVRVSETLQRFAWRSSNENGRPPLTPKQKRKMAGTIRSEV

CAAX prenyl protease 2 = target: T5, CAAX prenyl protease 2 (Saccharomyces cerevisiae S288c, UniProt Q03530); format: biochemical
T5 sequence (Q03530 whole entry): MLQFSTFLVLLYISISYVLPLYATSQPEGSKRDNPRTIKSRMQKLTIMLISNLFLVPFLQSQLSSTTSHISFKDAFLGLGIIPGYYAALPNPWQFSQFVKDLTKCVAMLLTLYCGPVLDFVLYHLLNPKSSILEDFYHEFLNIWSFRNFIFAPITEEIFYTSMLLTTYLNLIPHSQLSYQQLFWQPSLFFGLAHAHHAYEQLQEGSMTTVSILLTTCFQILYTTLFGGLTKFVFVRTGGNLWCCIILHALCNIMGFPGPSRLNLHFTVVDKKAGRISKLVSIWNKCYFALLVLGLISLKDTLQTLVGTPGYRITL

[14] = HEp-2 cell cytotoxicity, dose response, cytotoxicity control for RSV inhibitor project, HTS (AID 2410); format: functional; conditions: human respiratory syncytial virus
[15] = test system: Streptococcus sp. 'group A'; experiment: growth inhibition of control SK(-) GAS strain, dose response, counter-screen for streptokinase expression inhibitor project, luminescence, kanamycin, BacTiterGlo, confirmation (AID 1900); format: functional, organism-based
Streptokinase A = target: T6, Streptokinase A (Streptococcus pyogenes serotype M1, UniProt P10520); experiment: S. pyogenes streptokinase expression inhibitors, potency, dose response, plasminogen activation absorbance, OD405 (AID 1914); format: functional, Streptococcus pyogenes M1 GAS;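 also: secreted streptokinase activity via plasminogen activation per viability signal from cell pellet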
T6 sequence (P10520 whole entry): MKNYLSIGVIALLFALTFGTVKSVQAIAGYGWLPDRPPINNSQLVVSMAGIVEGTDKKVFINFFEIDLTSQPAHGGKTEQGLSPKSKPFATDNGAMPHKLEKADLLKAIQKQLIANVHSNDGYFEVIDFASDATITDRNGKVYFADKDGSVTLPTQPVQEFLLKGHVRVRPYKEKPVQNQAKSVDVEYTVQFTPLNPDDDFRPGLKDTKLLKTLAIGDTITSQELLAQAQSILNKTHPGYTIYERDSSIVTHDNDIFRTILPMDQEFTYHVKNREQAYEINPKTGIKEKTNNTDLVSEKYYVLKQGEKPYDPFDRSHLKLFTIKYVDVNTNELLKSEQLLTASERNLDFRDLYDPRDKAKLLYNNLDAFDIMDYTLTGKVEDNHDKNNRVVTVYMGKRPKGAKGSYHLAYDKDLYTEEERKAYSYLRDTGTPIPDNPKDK

Streptococcus = experiment: Group A Streptococcus viability loss, dose response, counter-screen for streptokinase expression inhibitor project, luminescence, BacTiterGlo (AID 1915); format: functional, organism-based;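 also: potency for reduction of bacterial viability or growth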
[16] = P. falciparum Dd2 growth inhibitors, dose response, SYBR Green, cherry-picked samples (AID 1159567); format: functional, cell-based
[17] = HepG2 cell cytotoxicity, dose response, cytotoxicity control, cherry-picked samples (AID 1159577); format: functional, cell-based
Estrogen receptor beta = Estrogen receptor beta (Homo sapiens, UniProt Q92731); experiment: ERβ–SRC-3 coactivator interaction inhibitors, confirmation, orthogonal assay, biochemical, ELISA, streptavidin-HRP readout (AID 1060)
Estrogen receptor beta, sequence (Q92731 whole entry): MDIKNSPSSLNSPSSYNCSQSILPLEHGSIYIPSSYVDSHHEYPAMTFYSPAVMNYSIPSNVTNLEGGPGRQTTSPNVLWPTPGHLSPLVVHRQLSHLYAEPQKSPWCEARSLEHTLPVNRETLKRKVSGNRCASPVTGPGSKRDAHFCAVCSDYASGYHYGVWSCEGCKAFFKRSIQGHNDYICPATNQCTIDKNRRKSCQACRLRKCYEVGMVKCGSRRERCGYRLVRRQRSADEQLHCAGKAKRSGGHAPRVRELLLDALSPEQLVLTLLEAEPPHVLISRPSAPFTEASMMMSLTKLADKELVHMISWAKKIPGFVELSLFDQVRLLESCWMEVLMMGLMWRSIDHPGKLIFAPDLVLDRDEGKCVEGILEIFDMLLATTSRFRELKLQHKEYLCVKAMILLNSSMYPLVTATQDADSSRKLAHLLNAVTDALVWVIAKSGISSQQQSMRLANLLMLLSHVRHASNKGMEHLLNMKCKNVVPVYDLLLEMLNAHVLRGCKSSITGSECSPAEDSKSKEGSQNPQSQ

[18] = P. falciparum 3D7-ScDHODH growth inhibitors, dose response, SYBR Green, dry powder samples (AID 1159570); format: functional, cell-based;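 also: parasite growth measured after 72 hours of compound exposure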
[19] = P. falciparum Dd2 growth inhibitors, dose response, SYBR Green, dry powder samples (AID 1159566); format: functional, cell-based;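 also: potency for growth inhibition with lower SYBR green DNA signal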
[20] = P. falciparum ATP4 D1247Y mutant growth inhibitors, dose response, NITD609-resistant line, SYBR Green, dry powder (AID 1159571); format: functional, cell-based;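 also: parasites synchronized at ring stage by sorbitol before testing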
cells [21] = format: functional, cell-based
[22] = Luminescence-based counterscreen assay for KLF5 inhibitors: dose response cell-based high throughput screening assay to identify cytotoxic compounds using the IEC-6 intestinal epithelial cell line. [Related pubchem assays: 1700 (Primary screen.), 1834 (Confirmation screen.), 1858 (Summary AID.), 1905 (Counterscreen.)]; format: functional
cells [23] = format: functional, cell-based; remark: listed apart in the source
[24] = inhibitors of intracellular T. cruzi replication, confirmation, NIH3T3 host cells, beta-gal luminescence (AID 2044); format: functional, cell-based;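 also: intracellular parasites grown in NIH/3T3 mouse fibroblasts as host cells; luminescent beta-galactosidase reporter signal from transgenic T. cruzi replicating inside host cells; inhibitors lower the luminescence signal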
[25] = cytotoxicity toward NIH3T3 fibroblasts, dose response, counter-screen, cell-based, ATP luminescence, mouse fibroblasts (AID 2010); format: functional;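 also: cells exposed to compound for about 90 hours before reading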
Vero = experiment: cells; format: functional; conditions: Chlorocebus sabaeus

## C/C(=N\OC(=O)c1ccc(F)cc1)c1sc(-c2ccc(Cl)cc2)nc1C
[1]
  EC50: 0.301 µM (active)
[2]
  EC50: < 0.1 µM (active)
[3]
  EC50: 0.122 µM (active)
H4
  EC50: < 0.1 µM (active)
[4]
  EC50: 0.37 µM (active)
[5]
  EC50: 0.236 µM (active)

## CCOC(=O)c1c(C(C)(C)C)oc2ccc(O)cc12
[6]
  IC50: 4.47 µM (active)
[7]
  IC50: > 20 µM (inactive)

## CC(C)(CNC(=O)c1ccc([N+](=O)[O-])c(Cl)c1)CNC(=O)c1ccc([N+](=O)[O-])c(Cl)c1
[6]
  IC50: 3.11 µM (active)
Melanocortin receptor 4
  IC50: > 64.6 µM (inactive)
[8]
  IC50: > 64.6 µM (inactive)
Fatty acid synthase [9]
  IC50: 5.44 µM (active)
Fatty acid synthase [10]
  IC50: 6.06 µM (active)

## c1ccc(-c2nnc(-c3ccccn3)nn2)nc1
[11]
  EC50: > 300 µM (not active)
[12]
  EC50: 49.8 µM (inconclusive)
[13]
  CC50: 34.2 µM (active)
Nonstructural protein 1
  IC50: 12.6 µM (active)

## O=C(Nc1ncc(Cc2ccccc2)s1)C1COc2ccccc2O1 (stereo unspecified)
[1]
  EC50: 0.179 µM (active)
[3]
  EC50: < 0.1 µM (active)
[4]
  EC50: 11.4 µM (active)
[5]
  EC50: 0.465 µM (active)

## O=C(Nc1ccccc1-c1nc2ccccc2[nH]1)c1ccc(N2C(=O)CCC2=O)cc1
CAAX prenyl protease 2
  AC50: 75.6 µM (active)
Melanocortin receptor 4
  IC50: > 21.5 µM (inactive)
[8]
  IC50: > 64.6 µM (inactive)

## O=C(NC(=S)Nc1ccccc1N1CCOCC1)c1ccc(Br)cc1
[6]
  IC50: 1.08 µM (active)

## Cn1cnnc1SCc1ccc(C(=O)N=Nc2c(O)n(Cc3ccc(Cl)cc3)c3ccccc23)cc1
[14]
  CC50: 16.5 µM (active)
[15]
  EC50: 3.12 µM (active)
Streptokinase A
  EC50: 18 µM (inconclusive)
[13]
  CC50: 21.2 µM (active)
Streptococcus
  EC50: > 150 µM (not active)

## COc1ccc2c3c([nH]c2c1)[C@H](CO)N(Cc1ccncc1)CC31CCN(Cc2ccc(-c3ccccn3)cc2)CC1
[16]
  AC50: 0.973 µM (active)
[17]
  AC50: 17.6 µM (active)

## CCCc1cc(O)nc(SCC(=O)Nc2ccc(C(=O)OC)cc2)n1
Estrogen receptor beta
  IC50: > 50 µM (not active)

## C[C@@H]1CN([C@@H](C)CO)C(=O)Cc2cc(NC(=O)Nc3ccc(C(F)(F)F)cc3)ccc2O[C@H]1CN(C)CC1CCCCC1
[16]
  AC50: 1.35 µM (active)
[17]
  AC50: 10.4 µM (active)

## C[C@H](CO)N1C[C@H](C)[C@@H](CN(C)Cc2ccc3c(c2)OCO3)Oc2ccc(NC(=O)Nc3ccc(C(F)(F)F)cc3)cc2CC1=O
[18]
  AC50: 0.954 µM (active)
[16]
  AC50: 1.14 µM (active)
[19]
  AC50: 0.94 µM (active)
[17]
  AC50: > 39 µM (inactive)
[20]
  AC50: 0.852 µM (active)

## CN(C)c1cc(O)c(C(S)=Nc2ccccc2)c(N(C)C)c1
CAAX prenyl protease 2
  AC50: 52.2 µM (active)

## Cc1ccc(C(=O)N/N=C/c2cc(Br)ccc2O)cn1
[15]
  EC50: 3.17 µM (active)
Cells [21]
  EC50: 16.1 µM (active)
[22]
  IC50: 5.56 µM (active)
Cells [23]
  EC50: > 350 µM (not active)
Streptococcus
  EC50: 5.99 µM (active)
Nonstructural protein 1
  IC50: 12.3 µM (active)

## COc1ccc(C2c3[nH]c4ccccc4c3CCN2Cc2cccn2-c2ncccn2)cc1C (stereo unspecified)
[24]
  EC50: 1.28 µM (active)
[13]
  CC50: > 40 µM (active)
[25]
  EC50: > 60 µM (inconclusive)

## CN1CCN(Cc2c(C(=O)N/N=C/c3cccc(Br)c3)nnn2-c2nonc2N)CC1
CAAX prenyl protease 2
  AC50: 2.08 µM (active)
Vero
  CC50: 10.1 µM (active)

## CCC1(c2ccccc2)ON(c2c(Br)cccc2Br)C1=O (stereo unspecified)
[13]
  CC50: 21.4 µM (active)
Vero
  CC50: > 25 µM (active)

## N#CC1=C2N=C(N)c3ccccc3N2C2=C(C(=O)CCC2)C1c1cccc(Cl)c1 (stereo unspecified)
[6]
  IC50: 8.48 µM (active)

## CCOC(=O)c1sc(NC(=O)c2ccc3ncsc3c2)nc1C
[22]
  IC50: > 39.8 µM (not active)
